Data reported in publication PMC5829097, “Designing Antibacterial Peptides with Enhanced Killing Kinetics” (Frontiers in Microbiology, 2018).
Marks after values point to notes of the source that are not given here. Square brackets hold non-standard residues; d marks the D form. Peptide text beside a SMILES is read from it. 12Ado = NCCCCCCCCCCCC(=O)O

Tests used:
S. aureus ATCC 25923 = assay: Killing kinetics assay (time-kill, first order death rate constant); format: cell-based, Staphylococcus aureus; details: for behavior of the kinetic (death rate) constant as a function of peptide concentration: S. aureus time-kill, concentrations up to 50 μM; for Hills coefficient of death rate constant vs peptide concentration (initial saturating phase) / half saturation constant of death rate constant vs peptide concentration (initial saturating phase): fit Equations 1-3, S. aureus ATCC 25923
Experimental: Overnight grown culture (S. aureus ATCC 25923) was diluted in fresh MH broth and allowed to grow to obtain OD600 nm of 0.8. The culture was diluted in MH broth to obtain a cell density of 10^5-10^6 c.f.u/ml and was incubated with the peptides at various concentrations within the MIC range for each peptide [BMAP28(1–18), P1, and P1m] till a highest concentration of 50 μM. Aliquots were drawn at specific time intervals and plated after dilution on MH agar plates. The plates were incubated at 37°C for 24 h to obtain viable colonies for calculating the initial death rates of the peptides. The kinetic rate constant was determined by evaluation of c.f.u count at various time points ranging from 10 to 45 min. First order death rate constant was determined by plotting log(c.f.u) vs. time and the slope of linear fit yielded the death rate constant. Four to five time points were used to determine the rate constant. Only two time points were considered for death rate constant at very high concentration (50 μM) as complete killing occurred in the first 15 min.
To further study the effect of mutation on behaviour of peptides, the first order rate constant for the death of S. aureus ATCC 25923 was determined by performing time-kill assays using BMAP28(1-18), P1 and P1m. The following equations were obtained by the fit.
In the first phase, the rate constant saturated to about 28.5 h^-1 up to a peptide concentration of 30µM. […] The behaviour of the rate constant was captured as a product of two functions, namely, an initial region represented by Hills Equation indicating a saturating behaviour, and exponential increase post saturation (Equation 1-3). […] A Hills coefficient greater than 2 indicates a sensitive response requiring only about less than 9 fold change in the concentration to reach saturation. But a lower half saturation constant for BMAP28(1-18) indicates higher affinity of binding of the peptides to the cell membrane for BMAP28(1-18) compared to that for P1m. […] This dramatic effect was caused due to a single change in the residue of an amino-acid. It may be possible that the second phase for P1 may occur at a higher concentration of peptide.
The initial rate constant was determined by fitting the first order death kinetics. The CFU (C) of the organism/cell was determined experimentally in time. The first order rate constant, k, was evaluated by linear fitting the equation given below: […]

human RBCs = assay: Cytotoxicity assay against human erythrocytes (hemolysis); format: cell-based; details: pH 7.4
Experimental: Hemolysis was determined by incubating 10% (v/v) suspension of human RBCs in PBS (pH 7.4) with different concentrations of peptides [BMAP28(1–18), P1, and P1m] ranging from 1.56 to 100 μM at 37°C for 1 h. RBCs incubated with 0.1% Triton X-100 was used as the positive control and RBCs incubated with PBS was used as blank. The incubated mixtures were centrifuged at 500 × g for 5 min. The hemolytic activity of the peptides was determined by measuring the absorbance of the supernatant at 541 nm. The percent hemolysis was calculated using the equation:
H=(absorbance of sample−absorbance of blank/absorbance of positive control−absorbance of blank)×100
The percentage hemolysis (H) was fitted using a Hill function with respect to the peptide concentration.
The % hemolysis was fitted using Hill equation to obtain n and K values. These values are also referred in Table 4 in the main text.

[1] = test system: Staphylococcus aureus ATCC 25923; assay: Antimicrobial assay, microdilution method (MIC; % death fitted to Hill equation); format: cell-based; details: for Hill coefficient n, Gram +ve (S. aureus 25923): Hill fit of % death after 18 h incubation vs peptide concentration; for EC50: Hill fit of % death after 18 h incubation, peptide concentration for 50% death, peptides tested in μM, unit inferred, read-out: half saturation constant K, Gram +ve (S. aureus 25923)
Experimental: (§1) Antimicrobial activity of peptides against Gram-positive (Staphylococcus aureus ATCC 25923, S. aureus ATCC 6538P) and Gram-negative (Escherichia coli ATCC 25922, E. coli ATCC 8739) bacteria were determined by microdilution method. Bacterial cultures were grown in Mueller–Hinton (MH) broth at 37°C for 18 h on a shaker to obtain an OD600 nm of 0.8. The cultures were diluted in MH broth to obtain a cell density of 10^5-10^6 c.f.u/ml. The peptides were serially diluted in MH broth. The serially diluted peptides were inoculated with bacterial cultures in 1:1 ratio in sterile 96-well microtiter plates. A bovine myeloid antimicrobial peptide, BMAP28(1–18), was used as the positive control. The peptides were tested for antimicrobial activity in the range from 1 to 100 μM. The MICs of the peptides were determined by OD600 nm measurements after 18 h of incubation at 37°C. Bacterial strains were purchased from National Collection of Industrial Microorganisms, National Chemical Laboratories, Pune, India. The percentage death evaluated for S. aureus ATCC 25923 and E. coli ATCC 8739 after 18 h incubation was fitted to a Hill equation and the parameters namely Hill coefficient (n) and the half-saturation constant (K) were evaluated (Details in Supplementary File).
(§2) The % death value after 18h incubation of the organisms (E. coli ATCC 8739 and S. aureus ATCC 25923) with the peptides was fitted using the Hill equation: […]
(§3) The percentage death was fitted to a sigmoidal input-output relationship through Hill's Equation as given below.
(§4) Here, Y is the normalized percentage death taking values in the range [0,1] and X is the concentration of the antimicrobial peptide. The data for value of Y was obtained through experiments. It can be noted that the Hill's Equation has two parameters namely, n and K, Hill's Coefficient and Half Saturation Constant, also referred to as K0.5. The values of the parameters are specific to a system. The Hill Equation can be linearized as follows.
(§5) The linear equation was fitted by plotting LHS of the above equation versus ln(X). The slope of the best fit line equation (linear regression) will yield the value of Hill's coefficient and the value of the intercept can be further used to evaluate the value of the half saturation constant, K. The Hill coefficient (n) determines the sensitivity of the response (steepness of the sigmoidal curve) and the half saturation constant (K) determines the threshold input needed for the response (equivalent to EC50 value).

[2] = test system: Escherichia coli ATCC 8739; assay: as above; format: cell-based; details: for Hill coefficient n, Gram −ve (E. coli 8739): Hill fit of % death after 18 h incubation vs peptide concentration; for EC50: Hill fit of % death after 18 h incubation, peptide concentration for 50% death, peptides tested in μM, unit inferred, read-out: half saturation constant K, Gram −ve (E. coli 8739)
Experimental: as §1, §2, §3, §4, §5

[3] = test system: Staphylococcus aureus ATCC 6538P; assay: Antimicrobial assay, microdilution method (MIC); format: cell-based; details: value marked *: 50% inhibition, MH broth, 18 h, 37°C, OD600 nm, triplicates of three independent experiments
Experimental: as §1

[4] = test system: Escherichia coli ATCC 25922; assay: Antimicrobial assay, microdilution method (MIC); format: cell-based; details: MH broth, 10^5-10^6 c.f.u/ml, 18 h, 37°C, OD600 nm, tested 1 to 100 μM, average range from triplicates of three independent experiments
Experimental: as §1

[5] = microdilution, MH broth, 10^5-10^6 c.f.u/ml, 18 h, 37°C, OD600 nm, tested 1 to 100 μM, average range from triplicates of three independent experiments
[6] = value marked *: 50% inhibition, microdilution, MH broth, 18 h, 37°C, OD600 nm, triplicates of three independent experiments

| Molecule | behavior of the kinetic (death rate) constant as a function of peptide concentration (S. aureus ATCC 25923) | Hills coefficient of death rate constant vs peptide concentration (initial saturating phase) (S. aureus ATCC 25923) | half saturation constant of death rate constant vs peptide concentration (initial saturating phase) (S. aureus ATCC 25923) [µM] | half saturation constant K, Human RBCs (human RBCs) | Hill coefficient n, Gram +ve (S. aureus 25923) [1] | EC50 [1] [µM] | Hill coefficient n, Gram −ve (E. coli 8739) [2] | EC50 [2] [µM] | time sufficient to reduce the cell number by half (S. aureus ATCC 25923; at 50µM of the peptide) | death rate constant at 50µM of the peptide (S. aureus ATCC 25923; first order, slope of log(c.f.u) vs time, 50 µM, two time points) | MIC, S. aureus 6538 P (* 50% inhibition) [3] | MIC, E. coli 25922 [4] | MIC, S. aureus 25923 [1, 5] | MIC, E. coli 8739 [2, 5] | MIC, S. aureus 25923 (* 50% inhibition) [1, 6] | MIC, E. coli 8739 (* 50% inhibition) [2, 6] |
| --- | --- | --- | --- | --- | --- | --- | --- | --- | --- | --- | --- | --- | --- | --- | --- | --- |
| CC[C@H](C)[C@H](NC(=O)CNC(=O)[C@H](CC(C)C)NC(=O)[C@@H](NC(=O)[C@@H](NC(=O)[C@H](CCCCN)NC(=O)[C@H](CCCNC(=N)N)NC(=O)[C@H](C)NC(=O)[C@H](CC(C)C)NC(=O)[C@H](C)NC(=O)[C@H](CCCNC(=N)N)NC(=O)[C@H](CC(C)C)NC(=O)[C@H](CC(C)C)NC(=O)[C@@H](NC(=O)CCCCCCCCCCCN)C(C)C)[C@@H](C)CC)[C@@H](C)O)C(=O)N[C@@H](CCCCN)C(=O)N[C@@H](CCCCN)C(=O)N[C@@H](Cc1ccc(O)cc1)C(=O)NCC(N)=O [P1] (H-[12Ado]VLLRALARKITLGIKKYG-NH2) | monophasic behavior | 2.3 | 8.4 | 170 | 1.2 | 3 | 1.02 | 26.6 | – | – | – | – | – | – | – | – |
| CC[C@H](C)[C@H](NC(=O)[C@H](CCCCN)NC(=O)[C@H](CCCNC(=N)N)NC(=O)CNC(=O)[C@H](CC(C)C)NC(=O)[C@H](CO)NC(=O)[C@H](CCCNC(=N)N)NC(=O)[C@H](CC(C)C)NC(=O)CNC(=O)CNC(=O)CCCCCCCCCCCN)C(=O)N[C@@H](CC(C)C)C(=O)N[C@@H](CCCNC(=N)N)C(=O)N[C@@H](C)C(=O)N[C@@H](Cc1c[nH]c2ccccc12)C(=O)N[C@@H](CCCCN)C(=O)N[C@@H](CCCCN)C(=O)N[C@@H](Cc1ccc(O)cc1)C(=O)NCC(N)=O [BMAP28(1–18), reference compound] (H-[12Ado]GGLRSLGRKILRAWKKYG-NH2; N-terminus and C-terminus assumed) | biphasic behavior | 2.4 | 3.1 | 61.4 | 2.5 | 1.4 | 3.07 | 2.2 | about 40 s | about 60 h^-1 | – | – | – | – | – | – |
| VFLRILVRKIAPGVKKYG [P3, designed 18-residue MAP-family-like peptide, N-terminal amino-lauric acid and C-terminal amide] | – | – | – | – | – | – | – | – | – | – | 50–100^* μM | NA (NA-inactive upto 100μM) | NA (NA-inactive upto 100μM) | NA (NA-inactive upto 100μM) | – | – |
| CILRWLARKIPWHAKKYG [P2, designed 18-residue MAP-family-like peptide, N-terminal amino-lauric acid and C-terminal amide] | – | – | – | – | – | – | – | – | – | – | 12.5–25^* μM | NA (NA-inactive upto 100μM) | – | – | 50–100^* μM | 50–100^* μM |
